The experiment concerns HCV replicon (5-2 Luc replicon-comprising cells). As to the kind of experiment: HCV replicon luciferase emission assay. It counts as cell-based. To be noted: Hepatitis C virus; 5-2 Luc replicon cells, 24 hours with compound, 50% reduction in luciferase emission. The source says: The inhibitory activity of certain exemplary compounds of the invention was confirmed using an HCV replicon assay. The HCV replicon can include such features as the HCV 5′ untranslated region including the HCV IRES, the HCV 3′ untranslated region, selected HCV genes encoding HCV polypeptides, selectable markers, and a reporter gene such as luciferase, GFP, etc. In the assay, actively dividing 5-2 Luc replicon-comprising cells (obtained from Rolf Bartenschlager; see Lohmann et al., 1999, Science 285:110-113) were seeded at a density of between about 5,000 and 7,500 cells/well onto 96 well plates (about 90 μl of cells per well) and incubated at 37° C. and 5% CO2 for 24 hours. Then, the test compound (in a volume of about 10 μl) was added to the wells at various concentrations and the cells were incubated for an additional 24 hours before luciferase assay. The media was aspirated from each well and Bright-Glo (Promega, Madison, Wis.) luciferase assay reagents were added to each well according to the manufacturer's instructions. Briefly, the Bright-Glo reagent was diluted 1:1 with PBS and 100 μl of diluted reagent was added to each well. After 5 min of incubation at room temperature, luciferin emission was quantified with a luminometer. In this assay, the amount of test compound that yielded a 50% reduction in luciferase emission (IC50) was determined.
(In general: Replicon systems follow genome replication, usually without infectious particles.)

Consider one compound from US20050143433A1, “Substituted heterocycles useful for treating HCV infection” (priority 2003, published 2005).

pIC50: −log10 of the molar value.

The term pIC50 denotes the negative decadic logarithm of the IC50, by convention in mol/L. With `O=C1c2ccccc2-c2onc3ccc(N4CC4)c1c23` [Compound 2], the pIC50 is 6.10.
